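Step 1: Grow cells in 96-well plates. Step 2: Expose to compound for 48 hours at 5 concentrations. Step 3: Interpolate endpoints linearly; if unreached, use highest concentration. The concentration for 50% growth inhibition is given as GI50.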 Activity calls are given as the source filed them. Rule as the data show it: active = GI50 up to about 1.1 µM and inactive = higher.
How the values were obtained:
Test in all cases: NCI-60 cell line screen, 48 h
A498 = system: A498
SW-620 = system: SW-620
UACC-257 = system: UACC-257
SR = system: SR
SK-OV-3 = system: SK-OV-3
HCT-116 = system: HCT-116
COLO 205 = system: COLO 205
LOX IMVI = system: LOX IMVI
NCI/ADR-RES = system: NCI/ADR-RES
BT-549 = system: BT-549
CCRF-CEM = system: CCRF-CEM
SN12C = system: SN12C
SNB-19 = system: SNB-19
CAKI-1 = system: CAKI-1
Malme-3M = system: Malme-3M
EKVX = system: EKVX
U-251 = system: U-251
NCI-H522 = system: NCI-H522
MDA-MB-435 = system: MDA-MB-435

Row | Structure (SMILES) | GI50 (A498) | GI50 (SW-620) | GI50 (UACC-257) | GI50 (SR) | GI50 (SK-OV-3) | GI50 (HCT-116) | GI50 (COLO 205) | GI50 (LOX IMVI) | GI50 (NCI/ADR-RES) | GI50 (BT-549) | GI50 (CCRF-CEM) | GI50 (SN12C) | GI50 (SNB-19) | GI50 (CAKI-1) | GI50 (Malme-3M) | GI50 (EKVX) | GI50 (U-251) | GI50 (NCI-H522) | GI50 (MDA-MB-435)
1 | CCOc1cc(-c2nc3ccccn3c2/N=C/c2cc(Br)ccc2O)ccc1O | 31.6 µM (inactive) | 65 µM (inactive) | 18.1 µM (inactive) | 35.6 µM (inactive) | 29.2 µM (inactive) | 30.8 µM (inactive) | > 100 µM (inactive) | 23.2 µM (inactive) | 27.7 µM (inactive) | 29.6 µM (inactive) | > 100 µM (inactive) | 31.3 µM (inactive) | 21.3 µM (inactive) | 67.1 µM (inactive) | 41.1 µM (inactive) | 23 µM (inactive) | 17.5 µM (inactive) | 35.9 µM (inactive) | 66.8 µM (inactive)
2 | Cc1ccc(C)c(NC(=O)/C(=N\N)C(c2cnc3ccc([N+](=O)[O-])cc3n2)[N+](=O)[O-])c1 (centres undefined) | 83.2 µM (inactive) | > 100 µM (inactive) | > 100 µM (inactive) | 74.1 µM (inactive) | 67.5 µM (inactive) | > 100 µM (inactive) | – | 56.4 µM (inactive) | 32.2 µM (inactive) | > 100 µM (inactive) | 4.99 µM (inactive) | > 100 µM (inactive) | – | 39.4 µM (inactive) | 66.8 µM (inactive) | 43.3 µM (inactive) | > 100 µM (inactive) | 19.7 µM (inactive) | 62.5 µM (inactive)
3 | Cc1cc2c(cc1C)OC(=O)CC2 | > 100 µM (inactive) | > 100 µM (inactive) | > 100 µM (inactive) | > 100 µM (inactive) | – | > 100 µM (inactive) | > 100 µM (inactive) | > 100 µM (inactive) | > 100 µM (inactive) | > 100 µM (inactive) | > 100 µM (inactive) | > 100 µM (inactive) | – | > 100 µM (inactive) | > 100 µM (inactive) | > 100 µM (inactive) | > 100 µM (inactive) | > 100 µM (inactive) | > 100 µM (inactive)
4 | Nc1nc(O)c2c(n1)NCN(CCCN1CCOCC1)C2 | > 100 µM (inactive) | > 100 µM (inactive) | > 100 µM (inactive) | > 100 µM (inactive) | – | > 100 µM (inactive) | > 100 µM (inactive) | > 100 µM (inactive) | > 100 µM (inactive) | > 100 µM (inactive) | – | > 100 µM (inactive) | > 100 µM (inactive) | > 100 µM (inactive) | > 100 µM (inactive) | > 100 µM (inactive) | > 100 µM (inactive) | > 100 µM (inactive) | > 100 µM (inactive)
5 | O=C1C=CC(=O)c2c1cc([N+](=O)[O-])c1ccoc21 | 15.5 µM (inactive) | 2.36 µM (inactive) | 10.7 µM (inactive) | 5.37 µM (inactive) | 20.4 µM (inactive) | 6.03 µM (inactive) | 2.49 µM (inactive) | 9.66 µM (inactive) | 22.6 µM (inactive) | 16.9 µM (inactive) | 2.1 µM (inactive) | 15.2 µM (inactive) | 21.5 µM (inactive) | 1.6 µM (inactive) | – | 17.8 µM (inactive) | 18.5 µM (inactive) | 2.07 µM (inactive) | 11.7 µM (inactive)
6 | CCOC(=O)C(CO)c1nc2c([nH]c1=O)c(=O)n(C)c(=O)n2C (centres undefined) | 0.608 µM (active) | > 100 µM (inactive) | > 100 µM (inactive) | > 100 µM (inactive) | – | > 100 µM (inactive) | > 100 µM (inactive) | > 100 µM (inactive) | > 100 µM (inactive) | > 100 µM (inactive) | > 100 µM (inactive) | > 100 µM (inactive) | > 100 µM (inactive) | > 100 µM (inactive) | > 100 µM (inactive) | > 100 µM (inactive) | > 100 µM (inactive) | > 100 µM (inactive) | > 100 µM (inactive)
7 | Cc1cn(C2CC(O)C(CO[Si](C)(C)C(C)(C)C)OC2OC(C)C)c(=O)[nH]c1=O (centres undefined) | > 10 µM (inactive) | 49.4 µM (inactive) | 34.6 µM (inactive) | 31.2 µM (inactive) | – | 16.5 µM (inactive) | 21.5 µM (inactive) | 18.5 µM (inactive) | 43.1 µM (inactive) | 44.9 µM (inactive) | 36.1 µM (inactive) | 39.6 µM (inactive) | 74.8 µM (inactive) | 55.2 µM (inactive) | 44.5 µM (inactive) | 42.5 µM (inactive) | 39.3 µM (inactive) | 30.2 µM (inactive) | 60 µM (inactive)
